Source: the supplement of paper PMC13207355
Counter-ions that a name gives are not always drawn.

Columns and labels:
Conditions in all cases: exposure time: 72 h
E31 [1] = patient-derived glioblastoma stem cells of proneural subtype; assay: phenotypic distance (Euclidean, principal components) from DMSO controls (arbitrary units); higher = stronger morphological change
FT3469 [2] = normal neural stem cell line; assay: as above
E57 [3] = patient-derived glioblastoma stem cells of mesenchymal subtype; assay: as above
E21 [4] = patient-derived glioblastoma stem cells of mesenchymal subtype; assay: as above
E13 [5] = patient-derived glioblastoma stem cells of classical subtype; assay: as above
E28 [6] = patient-derived glioblastoma stem cells of classical subtype; assay: as above
E34 [7] = patient-derived glioblastoma stem cells of proneural subtype; assay: as above
E31 [8] = assay: surviving fraction (nuclei count normalised to DMSO); higher = more cells surviving (less toxic)
FT3469 [9] = assay: as above
E57 [10] = assay: as above
E21 [11] = assay: as above
E13 [12] = assay: as above
E28 [13] = assay: as above
E34 [14] = assay: as above
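For phenotypic distance (Euclidean, principal components) from DMSO controls in this document: cell Painting imaging in 384-well plates, CellProfiler features reduced to at least 20 principal components, Euclidean distance versus same-plate DMSO vehicle wells (0.1% v/v), median over six images per well.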
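For surviving fraction (nuclei count normalised to DMSO) in this document: nuclei counted by high-content imaging of Hoechst-stained cells in laminin-coated 384-well plates, relative to 0.1% DMSO vehicle wells, with staurosporine as cell-death control.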

COc1cc(OC)c(C(=O)CCCN2CCCC2)c(OC)c1 [Buflomedil hydrochloride]
Conditions	phenotypic distance	surviving fraction
E13 [5], 4.1 nM	0.727	–
E13 [5], 12.3 nM	0.83	–
E13 [5], 37 nM	0.928	–
E13 [5], 111.1 nM	0.845	–
E13 [5], 333.3 nM	0.564	–
E13 [5], 1000 nM	0.536	–
E13 [5], 3000 nM	0.71	–
E13 [12], 4.1 nM	–	0.886
E13 [12], 12.3 nM	–	1.12
E13 [12], 37 nM	–	1.19
E13 [12], 111.1 nM	–	1.13
E13 [12], 333.3 nM	–	1.01
E13 [12], 1000 nM	–	1.17
E13 [12], 3000 nM	–	0.944
E21 [4], 4.1 nM	0.617	–
E21 [4], 12.3 nM	0.741	–
E21 [4], 37 nM	0.582	–
E21 [4], 111.1 nM	0.712	–
E21 [4], 333.3 nM	0.706	–
E21 [4], 1000 nM	0.913	–
E21 [4], 3000 nM	0.567	–
E21 [11], 4.1 nM	–	1.05
E21 [11], 12.3 nM	–	1.06
E21 [11], 37 nM	–	1.02
E21 [11], 111.1 nM	–	1.12
E21 [11], 333.3 nM	–	1.13
E21 [11], 1000 nM	–	1.12
E21 [11], 3000 nM	–	0.927
E28 [6], 4.1 nM	0.701	–
E28 [6], 12.3 nM	0.827	–
E28 [6], 37 nM	0.611	–
E28 [6], 111.1 nM	0.817	–
E28 [6], 333.3 nM	0.347	–
E28 [6], 1000 nM	0.489	–
E28 [6], 3000 nM	0.878	–
E28 [13], 4.1 nM	–	1.16
E28 [13], 12.3 nM	–	1.19
E28 [13], 37 nM	–	0.856
E28 [13], 111.1 nM	–	1.21
E28 [13], 333.3 nM	–	1.1
E28 [13], 1000 nM	–	1.16
E28 [13], 3000 nM	–	0.677
E31 [1], 4.1 nM	0.629	–
E31 [1], 12.3 nM	0.47	–
E31 [1], 37 nM	0.918	–
E31 [1], 111.1 nM	0.593	–
E31 [1], 333.3 nM	0.443	–
E31 [1], 1000 nM	0.577	–
E31 [1], 3000 nM	0.55	–
E31 [8], 4.1 nM	–	0.968
E31 [8], 12.3 nM	–	0.998
E31 [8], 37 nM	–	1.23
E31 [8], 111.1 nM	–	1.03
E31 [8], 333.3 nM	–	1.2
E31 [8], 1000 nM	–	1.04
E31 [8], 3000 nM	–	1.02
E34 [7], 4.1 nM	0.771	–
E34 [7], 12.3 nM	0.727	–
E34 [7], 37 nM	0.358	–
E34 [7], 111.1 nM	1.11	–
E34 [7], 333.3 nM	0.684	–
E34 [7], 1000 nM	0.961	–
E34 [7], 3000 nM	0.717	–
E34 [14], 4.1 nM	–	0.963
E34 [14], 12.3 nM	–	1.03
E34 [14], 37 nM	–	1.02
E34 [14], 111.1 nM	–	1.11
E34 [14], 333.3 nM	–	1.02
E34 [14], 1000 nM	–	1.22
E34 [14], 3000 nM	–	0.991
E57 [3], 4.1 nM	0.802	–
E57 [3], 12.3 nM	1.18	–
E57 [3], 37 nM	4.02	–
E57 [3], 111.1 nM	0.575	–
E57 [3], 333.3 nM	0.903	–
E57 [3], 1000 nM	0.71	–
E57 [3], 3000 nM	0.526	–
E57 [10], 4.1 nM	–	1.06
E57 [10], 12.3 nM	–	1.03
E57 [10], 37 nM	–	0.98
E57 [10], 111.1 nM	–	1.02
E57 [10], 333.3 nM	–	1.04
E57 [10], 1000 nM	–	0.994
E57 [10], 3000 nM	–	0.9
FT3469 [2], 4.1 nM	0.468	–
FT3469 [2], 12.3 nM	4.94	–
FT3469 [2], 37 nM	1.05	–
FT3469 [2], 111.1 nM	0.796	–
FT3469 [2], 333.3 nM	0.368	–
FT3469 [2], 1000 nM	0.514	–
FT3469 [2], 3000 nM	1.05	–
FT3469 [9], 4.1 nM	–	0.947
FT3469 [9], 12.3 nM	–	1.27
FT3469 [9], 37 nM	–	1.15
FT3469 [9], 111.1 nM	–	1
FT3469 [9], 333.3 nM	–	1.03
FT3469 [9], 1000 nM	–	1.1
FT3469 [9], 3000 nM	–	0.993

CO[C@H]1C(=O)[C@]2(C)[C@@H](OC)C[C@H]3OC[C@@]3(OC(C)=O)[C@H]2[C@H](OC(=O)c2ccccc2)[C@]2(O)C[C@H](OC(=O)[C@H](O)[C@@H](NC(=O)OC(C)(C)C)c3ccccc3)C(C)=C1C2(C)C [Cabazitaxel]
Conditions	phenotypic distance	surviving fraction
E13 [5], 4.1 nM	7.08	–
E13 [5], 12.3 nM	7.55	–
E13 [5], 37 nM	7.44	–
E13 [5], 111.1 nM	6.21	–
E13 [5], 333.3 nM	6.97	–
E13 [5], 1000 nM	7.09	–
E13 [5], 3000 nM	6.39	–
E13 [12], 4.1 nM	–	0.197
E13 [12], 12.3 nM	–	0.226
E13 [12], 37 nM	–	0.203
E13 [12], 111.1 nM	–	0.265
E13 [12], 333.3 nM	–	0.25
E13 [12], 1000 nM	–	0.245
E13 [12], 3000 nM	–	0.32
E21 [4], 4.1 nM	7.35	–
E21 [4], 12.3 nM	7.15	–
E21 [4], 37 nM	6.53	–
E21 [4], 111.1 nM	7.01	–
E21 [4], 333.3 nM	7.6	–
E21 [4], 1000 nM	8.51	–
E21 [4], 3000 nM	7.5	–
E21 [11], 4.1 nM	–	0.323
E21 [11], 12.3 nM	–	0.353
E21 [11], 37 nM	–	0.326
E21 [11], 111.1 nM	–	0.325
E21 [11], 333.3 nM	–	0.365
E21 [11], 1000 nM	–	0.413
E21 [11], 3000 nM	–	0.423
E28 [6], 4.1 nM	4.55	–
E28 [6], 12.3 nM	4.4	–
E28 [6], 37 nM	3.8	–
E28 [6], 111.1 nM	4.96	–
E28 [6], 333.3 nM	3.6	–
E28 [6], 1000 nM	4.06	–
E28 [6], 3000 nM	3.99	–
E28 [13], 4.1 nM	–	0.367
E28 [13], 12.3 nM	–	0.401
E28 [13], 37 nM	–	0.344
E28 [13], 111.1 nM	–	0.301
E28 [13], 333.3 nM	–	0.412
E28 [13], 1000 nM	–	0.412
E28 [13], 3000 nM	–	0.534
E31 [1], 4.1 nM	4.63	–
E31 [1], 12.3 nM	5.67	–
E31 [1], 37 nM	4.24	–
E31 [1], 111.1 nM	4.7	–
E31 [1], 333.3 nM	4.56	–
E31 [1], 1000 nM	4.89	–
E31 [1], 3000 nM	3.99	–
E31 [8], 4.1 nM	–	0.252
E31 [8], 12.3 nM	–	0.164
E31 [8], 37 nM	–	0.195
E31 [8], 111.1 nM	–	0.192
E31 [8], 333.3 nM	–	0.262
E31 [8], 1000 nM	–	0.218
E31 [8], 3000 nM	–	0.288
E34 [7], 4.1 nM	4.76	–
E34 [7], 12.3 nM	5.24	–
E34 [7], 37 nM	5.3	–
E34 [7], 111.1 nM	4.8	–
E34 [7], 333.3 nM	5.59	–
E34 [7], 1000 nM	4.91	–
E34 [7], 3000 nM	4.55	–
E34 [14], 4.1 nM	–	0.399
E34 [14], 12.3 nM	–	0.365
E34 [14], 37 nM	–	0.434
E34 [14], 111.1 nM	–	0.49
E34 [14], 333.3 nM	–	0.476
E34 [14], 1000 nM	–	0.608
E34 [14], 3000 nM	–	0.531
E57 [3], 4.1 nM	6.8	–
E57 [3], 12.3 nM	7.09	–
E57 [3], 37 nM	5.83	–
E57 [3], 111.1 nM	6.72	–
E57 [3], 333.3 nM	6.55	–
E57 [3], 1000 nM	6.56	–
E57 [3], 3000 nM	6.86	–
E57 [10], 4.1 nM	–	0.0988
E57 [10], 12.3 nM	–	0.102
E57 [10], 37 nM	–	0.0906
E57 [10], 111.1 nM	–	0.117
E57 [10], 333.3 nM	–	0.125
E57 [10], 1000 nM	–	0.133
E57 [10], 3000 nM	–	0.141
FT3469 [2], 4.1 nM	4.34	–
FT3469 [2], 12.3 nM	4.07	–
FT3469 [2], 37 nM	3.92	–
FT3469 [2], 111.1 nM	4.49	–
FT3469 [2], 333.3 nM	4.39	–
FT3469 [2], 1000 nM	5.31	–
FT3469 [2], 3000 nM	3.95	–
FT3469 [9], 4.1 nM	–	0.374
FT3469 [9], 12.3 nM	–	0.573
FT3469 [9], 37 nM	–	0.435
FT3469 [9], 111.1 nM	–	0.553
FT3469 [9], 333.3 nM	–	0.535
FT3469 [9], 1000 nM	–	0.406
FT3469 [9], 3000 nM	–	0.63
